Tests used:
[1] = system: human prostate cancer cells (PC3); assay: Assessment of cytotoxicity by SRB assay (PC3); format: cell-based; details: 0.01 μM to 100 μM, 72 h
Experimental: (§1) The human prostate cancer cells (PC3) and human osteosarcoma cells (MG-63) were obtained from Nawah Scientific Inc. (Mokatam, Cairo, Egypt) and cultured in DMEM (Dulbecco's modified eagle's medium), Gibco, USA, supplemented with fetal bovine serum (FBS) at a concentration of 10% and 100 U/mL of penicillin and streptomycin (PS). The Cells were incubated at 37° C. in a humidified environment that contained 5% C02.
(§2) Cells were seeded in 96-well plates as aliquots of 100 μL cell suspension and incubated in a complete media for 24 h. Afterward, cells were treated with 2-(1-(2-hydroxypropyl)-4,5-diphenyl-1H-imidazol-2-yl)pyridine at diverse concentrations ranging from 0.01 μM to 100 μM for 72 h. Then, cells were fixed at 4° C. for one hour with 150 μL of 10% trichloroacetic acid (TCA). After washing the cells five times with distilled water, 70 μL of sulforhodamine (SRB) solution (0.4% w/v) was added and incubated for 10 min at room temperature in a dark place. […] Then, 150 μL of Tris pH 10.5 (10 mM) was added, and the absorbance was measured at 540 nm using a BMG LABTECH®-FLUOstar Omega microplate reader (Ortenberg, Germany). Half maximal inhibitory concentrations (IC50) values were calculated for each experiment using GraphPad Prism 6 software. […]
(§3) The inhibition was calculated using the following equation: Inhibition %=100−Average Viability

[2] = system: human osteosarcoma cells (MG-63); assay: Assessment of cytotoxicity by SRB assay (MG-63); format: cell-based; details: 0.01 μM to 100 μM, 72 h
Experimental: as §1, §2, §3

melting point: 112 to 114 °C
Compound: CC(O)Cn1c(-c2ccccn2)nc(-c2ccccc2)c1-c1ccccc1 (stereo not drawn) [2-(1-(2-hydroxypropyl)-4,5-diphenyl-1H-imidazol-2-yl)pyridine]
antiproliferative activity against prostate cancer cells (PC3) [1]: excellent antiproliferative activities
antiproliferative activity against osteosarcoma (MG-63) cells [2]: excellent antiproliferative activities
